Experiment [1] addresses T1, wild-type HCV genotype 1b NS5B polymerase (Hepatitis C virus genotype 1b, UniProt Q9WMX2).
T1 construct: approximately 65 kDa HCV genotype 1b NS5B protein were used to generate recombinant HCV polymerases (with a deletion of the 21 carboxy terminal amino acids); made in house
Nature of the experiment: HCV polymerase enzyme assay, wild-type. The format is biochemical. An excerpt:
Test compounds in the form of nucleoside triphosphates were examined for inhibitory activity against purified HCV polymerase in a standard assay. Bacterial expression constructs encoding the approximately 65 kDa HCV genotype 1b NS5B protein were used to generate recombinant HCV polymerases (with a deletion of the 21 carboxy terminal amino acids). The wild-type genotype 1b protein was expressed and purified for use in the enzymatic activity assay.
The enzymatic activity assay measured the inhibitory effect of increasing concentrations of test compound on the incorporation of α-[^33P]-labeled nucleotide into trichloroacetic acid-precipitable material. Recombinant polymerase and synthetic RNA template were combined in reaction buffer containing three unlabeled ribonucleoside triphosphates, one α-[^33P]-labeled ribonucleosidee triphosphate and eight concentrations of test compound in three-fold dilutions. Reactions were incubated for two hours at 30° C.
Reactions were terminated by the addition of ice-cold trichloroacetic acid and sodium pyrophosphate to promote precipitation of newly-synthesized ribonucleic acid. Precipitable material from the reactions was collected by filtration onto 96-well filter plates, washed extensively with water, and quantified by liquid scintillation.
The inhibitory activity of test compounds was determined by fitting results to dose-response curves using XLfit software.

The next experiment has as its target T2, HCV polymerase S282T (Hepatitis C virus genotype 1b, UniProt Q9WMX2, S2701T).
T2 construct: approximately 65 kDa HCV genotype 1b NS5B protein were used to generate recombinant HCV polymerases (with a deletion of the 21 carboxy terminal amino acids); made in house
Nature of the experiment: HCV polymerase enzyme assay, S282T. The format is biochemical.

The term IC50 denotes the point on the concentration scale where inhibition reaches its midpoint. Low values mean greater potency, high ones weaker potency.

Structures are written as SMILES.

`C[C@@]1(Cl)[C@H](O)[C@@H](COP(=O)(O)OP(=O)(O)OP(=O)(O)O)O[C@H]1n1cc(F)c(=O)[nH]c1=O` [Compound 301] displayed an IC50 in experiment [1] of 250 to 1000 nM.
Same read-out and setting: under `C[C@@]1(O)[C@H](O)[C@@H](COP(=O)(O)OP(=O)(O)OP(=O)(O)O)O[C@H]1n1cc(F)c(N)nc1=O` [Compound 302] stands under 250 nM; under `C[C@@]1(Cl)[C@H](O)[C@@H](COP(=O)(O)OP(=O)(O)OP(=O)(O)O)O[C@H]1n1cc(F)c(N)nc1=O` [Compound 303], 250 to 1000 nM.
Take `C[C@@]1(F)[C@H](O)[C@@H](COP(=O)(O)OP(=O)(O)OP(=O)(O)O)O[C@H]1n1cc(F)c(=O)[nH]c1=O` [Compound 304]: the IC50 in experiment [1] is under 250 nM; at HCV polymerase S282T, 1000 to 10000 nM.

For the origin of these results see patent US10238680B2, “D-amino acid phosphoramidate pronucleotides of halogeno pyrimidine compounds for liver disease” (priority 2013, dated 2019).
